Measured values published in US20160367623A1, “AGONISTS OF GUANYLATE CYCLASE USEFUL FOR THE TREATMENT OF GASTROINTESTINAL DISORDERS, INFLAMMATION, CANCER AND OTHER DISORDERS” (priority 2015, published 2016).
Bridge positions count the residues as written; N and C are the ends. Ends that are not written are not given here.

System: patients with chronic idiopathic constipation (CIC)
Test: First phase 3 CIC trial: stool consistency, Bristol Stool Form Scale (BSFS) change from baseline
Type: in vivo, human
Details: for Change from Baseline in Stool Consistency, Difference from Placebo: overall 12-week; for Change from Baseline in Stool Consistency (BSFS), LS Mean (SE): overall average across the 12-week treatment period, ITT; for mean increase from baseline in BSFS score: placebo 0.77
Text: Both trials include a two-week pre-treatment baseline period, a 12-week treatment period, and a two-week post-treatment period. The phase 3 CIC program was designed to support regulatory submission in the U. S.
Patients were selected using Rome 3 criteria modified for CIC and had (1) fewer than 3 defecations per week, (2) loose stools occurring rarely without laxatives, (3) inadequate criteria for irritable bowel syndrome with constipation (IBS-C), and (4) at least two of the following applied to at least 25% of defecations: (a) straining during evacuation, (b) lumpy or hard stools, (c) sensation of anorectal obstruction or blockage. Rome 3 requires patients to fulfill the criteria for the last 3 months with symptom onset at least 6 months prior to diagnosis.

Substance: Asn^1-Asp^2-Glu^3-Cys^4-Glu^5-Leu^6-Cys^7-Val^8-Asn^9-Val^10-Ala^11-Cys^12-Thr^13-Gly^14-Cys^15-Leu^16 (NDECELCVNVACTGCL; disulfide 4-12, 7-15) [Plecanatide, uroguanylin analogue, guanylate cyclase-C agonist; (C4:C12, C7:C15) bicycle peptide]
- Week 1 Change from Baseline in Stool Consistency, Difference from Placebo (3 mg): 0.92
- Week 1 Change from Baseline in Stool Consistency, LS Mean (SE) (3 mg): 1.50 (0.071)
- stool consistency after discontinuation of treatment (3.0 mg and 6.0 mg, post-treatment period): returned towards baseline with no indication of an exaggerated or rebound effect
- Week 1 Change from Baseline in Stool Consistency, Mean (SD) (3 mg, n 414): 1.57 (1.563)
- Change from Baseline in Stool Consistency, Difference from Placebo (3 mg): 0.76
- Change from Baseline in Stool Consistency (BSFS), LS Mean (SE) (3 mg): 1.53 (0.058)
- mean increase from baseline in BSFS score (3.0 mg): 1.53
- Week 1 Change from Baseline in Stool Consistency, Difference from Placebo (6 mg): 0.85
- Week 1 Change from Baseline in Stool Consistency, LS Mean (SE) (6 mg): 1.42 (0.072)
- Week 1 Change from Baseline in Stool Consistency, Mean (SD) (6 mg, n 399): 1.42 (1.640)
- Change from Baseline in Stool Consistency, Difference from Placebo (6 mg): 0.75
- Change from Baseline in Stool Consistency (BSFS), LS Mean (SE) (6 mg): 1.52 (0.059)
- mean increase from baseline in BSFS score (6.0 mg): 1.52
- Week 1 Change from Baseline in Stool Consistency, Mean (SD) (Active Combined, n 813): 1.49 (1.602)
